≈ marks a conversion by molar mass, not a printed value. Read-outs that look alike come from different tables or passages of the source.
Experiments:
[1] = system: P. aeruginosa PA14 and Mar2xT7 transposon mutants; assay: MIC microbroth dilution assay, thiostrepton susceptibility of PA14 and mutants; assay type: cell-based, Pseudomonas aeruginosa; details: for MIC / IC50: Pseudomonas aeruginosa, VBMM; for IC50: read-out: ICCO
Experimental: MICs were determined with microbroth dilution assays in Nunc 96-well plates. Vehicle controls consisted of 1:75 dilutions of DMSO in 10:90 inoculated with PA14 or its mutants as described in “Growth Curves” above. Sterile controls consisted of 1:75 dilutions of DMSO in 10:90. Seven serially diluted concentrations of TS—with 17 μg/mL being the highest final concentration—was set up in triplicate. Tests were done with 1:75 dilutions of each TS concentration in 10:90 inoculated with PA14 or its mutants as described in Growth Curves. Plates were sealed to prevent evaporation and incubated with shaking at 200 rpm, 16 h, 37° C. The OD600 of the plates was read (Multiskan Go—Thermo Fisher Scientific) and used to calculate MIC. Growth is proportional to the darkness intensity whereas white indicates no observable growth. The final volume of each well was 150 μL and each experiment was repeated at least three times.
To identify the route of iron-limitation dependent TS entry into P. aeruginosa, the susceptibility of mutants from the ordered PA14 transposon library (15) that had insertions in genes encoding known siderophore receptors, as well as mutants with insertions in uncharacterized OM proteins with homology to siderophore receptors was tested. In VBMM, most mutants had MICs similar to those of the parental strain (Table 1). […]. P. aeruginosa encodes two type I pyoverdine receptors, FpvA and FpvB, with ˜39% amino acid identity (71% similarity). […]. When fpvA was deleted in the fpvB background, the double mutant had similar resistance levels to the fpvA single mutant (Table 1), but complementation of that mutant with fpvB on a low-copy number plasmid increased TS susceptibility (Table 1).

[2] = system: P. aeruginosa PAO1; assay: Checkerboard assays of TS with DFP, DSX or 10% serum; assay type: cell-based, Pseudomonas aeruginosa; details: 10:90 + 10% heat-inactivated mouse or human serum, regardless of DSX
Experimental: Human serum (Corning) and mouse serum (Equitech-Bio) were stored at −20° C. Sera were aliquoted into 5-ml culture tubes by thawing once at 37° C. for 30 min with occasional gentle mixing. Culture tubes were frozen at −20° C. until use. To make 10% serum solutions, serum was thawed for 10 min at 37° C. and then heat inactivated at 57° C. for 30 min. Two milliliters of heat-inactivated serum were added to 18 ml of 10:90 medium and gently mixed. This 10% serum solution was used for checkerboard assays.
Checkerboard assays were set-up using Nunc 96-well plates in an 8-well by 8-well format. Two columns were allocated for vehicle controls and two columns for sterility controls. Vehicle controls contained 2 μL DMSO plus 2 μL DFP solvent for checkerboards with TS and DFP or 4 μL DMSO for TS and DSX, in 146 μL of 10:90 medium or 10% serum inoculated with PA14 or PAO1-KP as described in Growth Curves. Sterile controls contained the same components in 10:90 medium or 10% serum, without cells. Serial dilutions of TS—with 17 μg/mL being the highest final concentration—were added along the y axis of the checkerboard (increasing concentration from bottom to top) whereas serial dilutions of DFP or DSX—with 512 μg/mL being the highest final concentration—were added along the x axis (increasing concentration from left to right). The final volume of each well was 150 μL and each checkerboard was repeated at least three times. Plates were incubated and the final OD600 determined as detailed above.

[3] = system: methicillin-resistant Staphylococcus aureus USA300; assay: Thiostrepton susceptibility of S. aureus in MHB versus 10:90; assay type: cell-based; details: both 10:90 medium and MHB
Description: The susceptibility of P. aeruginosa PA14, E. coli BW25113, A. baumannii C0286, and S. aureus USA300 was compared in MHB versus 10:90 medium. E. coli lacks FpvAB and is resistant to TS in both media.

[4] = Chrome azurol S (CAS) plate assay; assay type: physicochemical; details: 5 μl of 2 mg/ml; room temperature 1 h
[5] = PA14, strain chtA::Mar2xT7 (PA4675)
[6] = PA14, strain fithA::Mar2xT7 (PA4516)
[7] = PA14, strain fiuA::Mar2xT7 (PA0470)
[8] = PA14, strain foxA::Mar2xT7 (PA2466)
[9] = PA14, strain fptA::Mar2xT7 (PA4221)
[10] = PA14, strain fpvA fpvB::Mar2xT7 (PA2398, PA4168)
[11] = PA14, strain fpvA fpvB::Mar2xT7 + pUCP20-fpvB
[12] = PA14, strain fpvA fpvB::Mar2xT7 + pUCP20
[13] = PA14, strain fpvA::Mar2xT7 (PA2398)
[14] = PA14, strain fpvB::Mar2xT7 (PA4168)
[15] = PA14, strain hasR::Mar2xT7 (PA3408)
[16] = PA14, strain pfeA::Mar2xT7 (PA2688)
[17] = PA14, strain phuR::Mar2xT7 (PA4710)
[18] = PA14, strain pirA::Mar2xT7 (PA0931)
[19] = PA14, strain piuA::Mar2xT7 (PA4514)
[20] = PA14, strain pvdA::Mar2xT7 (PA2386)

C=C(NC(=O)C(=C)NC(=O)c1csc(C2=N[C@@H]3c4csc(n4)[C@H]4NC(=O)c5csc(n5)[C@H]([C@](C)(O)[C@@H](C)O)NC(=O)[C@H]5CSC(=N5)/C(=C/C)NC(=O)[C@H]([C@@H](C)O)NC(=O)c5csc(n5)[C@]3(CC2)NC(=O)[C@H](C)NC(=O)C(=C)NC(=O)[C@H](C)NC(=O)[C@H]([C@@H](C)CC)N[C@@H]2C=Cc3c([C@H](C)O)cc(nc3[C@H]2O)C(=O)O[C@@H]4C)n1)C(N)=O [TS, thiostrepton]
susceptibility to TS in Mueller-Hinton broth ([1]; P. aeruginosa PA14, nutrient-rich MHB versus 10:90): reduced susceptibility | MIC ([1]; PA14, strain PA14 (wild type)): 0.6 µM (≈ 0.999 µg/mL) | IC50 ([1]; PA14, strain PA14 (wild type)): 0.26 µg/mL (≈ 0.156 µM) | MIC ([1]; PA14, strain PA0151::Mar2xT7): 0.45 µM (≈ 0.749 µg/mL) | IC50 ([1]; PA14, strain PA0151::Mar2xT7): 0.26 µg/mL (≈ 0.156 µM) | MIC ([1]; PA14, strain PA1322::Mar2xT7): 0.41 µM (≈ 0.683 µg/mL) | IC50 ([1]; PA14, strain PA1322::Mar2xT7): 0.26 µg/mL (≈ 0.156 µM) | MIC ([1]; PA14, strain PA4837::Mar2xT7): 0.41 µM (≈ 0.683 µg/mL) | IC50 ([1]; PA14, strain PA4837::Mar2xT7): 0.26 µg/mL (≈ 0.156 µM) | MIC [1, 5]: 0.36 µM (≈ 0.599 µg/mL) | IC50 [1, 5]: 0.59 µg/mL (≈ 0.354 µM) | MIC [1, 6]: 0.5 µM (≈ 0.832 µg/mL) | IC50 [1, 6]: 0.26 µg/mL (≈ 0.156 µM) | MIC [1, 7]: 0.36 µM (≈ 0.599 µg/mL) | IC50 [1, 7]: 0.26 µg/mL (≈ 0.156 µM) | MIC [1, 8]: 0.6 µM (≈ 0.999 µg/mL) | IC50 [1, 8]: 0.26 µg/mL (≈ 0.156 µM) | MIC [1, 9]: 0.45 µM (≈ 0.749 µg/mL) | IC50 [1, 9]: 0.26 µg/mL (≈ 0.156 µM) | MIC [1, 10]: 7.5 µM (≈ 12.5 µg/mL) | IC50 [1, 10]: 6.9 µg/mL (≈ 4.14 µM) | MIC [1, 11]: 2.5 µM | IC50 [1, 11]: 2.8 µg/mL | MIC [1, 12]: 7.5 µM | IC50 [1, 12]: 4.2 µg/mL | MIC [1, 13]: 7.5 µM (≈ 12.5 µg/mL) | IC50 [1, 13]: 3.7 µg/mL (≈ 2.22 µM) | MIC [1, 14]: 1.3 µM (≈ 2.16 µg/mL) | IC50 [1, 14]: 1.8 µg/mL (≈ 1.08 µM) | MIC [1, 15]: 0.6 µM (≈ 0.999 µg/mL) | IC50 [1, 15]: 0.35 µg/mL (≈ 0.21 µM) | MIC [1, 16]: 0.82 µM (≈ 1.37 µg/mL) | IC50 [1, 16]: 0.26 µg/mL (≈ 0.156 µM) | MIC [1, 17]: 0.21 µM (≈ 0.35 µg/mL) | IC50 [1, 17]: 0.26 µg/mL (≈ 0.156 µM) | MIC [1, 18]: 0.6 µM (≈ 0.999 µg/mL) | IC50 [1, 18]: 0.35 µg/mL (≈ 0.21 µM) | MIC [1, 19]: 0.36 µM (≈ 0.599 µg/mL) | IC50 [1, 19]: 0.35 µg/mL (≈ 0.21 µM) | MIC [1, 20]: 0.21 µM (≈ 0.35 µg/mL) | IC50 [1, 20]: 0.26 µg/mL (≈ 0.156 µM) | concentration of TS required to inhibit growth in serum [2]: markedly decreased | TS concentration inhibiting growth [3]: < 40 nM | decolorization of CAS agar (iron binding) [4]: lack of a color change
